Data as given in the supplement of paper PMC10307832.

How the values were obtained:
Test in all cases: relative viability (nuclei count vs DMSO), 5 days (fraction); higher = more cells survive
[1] = compound: CC[C@H](Nc1ncnc2[nH]cnc12)c1nc2cccc(F)c2c(=O)n1-c1ccccc1 [Idelalisib] + COc1cc2c(Oc3ccc(NC(=O)C4(C(=O)Nc5ccc(F)cc5)CC4)cc3F)ccnc2cc1OCCCN1CCOCC1 [Foretinib] (partner 0.25 µM)
Method in brief: (§1)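 A single step with final 0.05% Triton X-100, 1% formaldehyde and 1 ug/ml Hoechst fixed the cells and stained nuclei 5 days after treatment. Lung cancer cell lines in 1536-well plates had been treated by pin tool the day after seeding with one drug alone or a fixed anchor-drug dose plus five library-drug doses (not always all listed) in √10 steps, and nuclei were counted on 4× images. Relative viability is the ratio of nuclei in treated wells to nuclei in vehicle wells, taken as the median of duplicate plates.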

[2] = compound: CC[C@H](Nc1ncnc2[nH]cnc12)c1nc2cccc(F)c2c(=O)n1-c1ccccc1 [Idelalisib] + CS(=O)(=O)CCNCc1ccc(-c2ccc3ncnc(Nc4ccc(OCc5cccc(F)c5)c(Cl)c4)c3c2)o1 [Lapatinib] (partner 2 µM)
Method in brief: as §1

[3] = compound: CC[C@H](Nc1ncnc2[nH]cnc12)c1nc2cccc(F)c2c(=O)n1-c1ccccc1 [Idelalisib] + CC(=O)Nc1cccc(-n2c(=O)n(C3CC3)c(=O)c3c(Nc4ccc(I)cc4F)n(C)c(=O)c(C)c32)c1 [Trametinib] (partner 0.02 µM)
Method in brief: as §1

[4] = compound: CC[C@H](Nc1ncnc2[nH]cnc12)c1nc2cccc(F)c2c(=O)n1-c1ccccc1 [Idelalisib] + Cc1nc(Nc2ncc(C(=O)Nc3c(C)cccc3Cl)s2)cc(N2CCN(CCO)CC2)n1 [Dasatinib] (partner 0.075 µM)
Method in brief: as §1

UMC-11
relative viability ([1]; first compound 0.04 µM): 0.957
relative viability ([1]; first compound 0.1265 µM): 1.07
relative viability ([1]; first compound 0.4 µM): 0.988
relative viability ([1]; first compound 1.265 µM): 1.03
relative viability ([1]; first compound 4 µM): 1.09
relative viability ([2]; first compound 0.04 µM): 1
relative viability ([2]; first compound 0.1265 µM): 1.02
relative viability ([2]; first compound 0.4 µM): 0.985
relative viability ([2]; first compound 1.265 µM): 1.14
relative viability ([2]; first compound 4 µM): 0.976
relative viability ([3]; first compound 0.04 µM): 0.786
relative viability ([3]; first compound 0.1265 µM): 0.651
relative viability ([3]; first compound 0.4 µM): 0.629
relative viability ([3]; first compound 1.265 µM): 0.764
relative viability ([3]; first compound 4 µM): 0.72
relative viability ([4]; first compound 0.04 µM): 0.349
relative viability ([4]; first compound 0.1265 µM): 0.492
relative viability ([4]; first compound 0.4 µM): 0.391
relative viability ([4]; first compound 1.265 µM): 0.564
relative viability ([4]; first compound 4 µM): 0.474
